Counter-ions that a name gives are not always drawn.

Data set [1] has as its system Columbia SK virus. Description: Antiviral effects against an interferon-sensitive virus, Columbia SK. The data set is classed as in vivo, Taconic Farms male, white mice. Conditions: 400 mg/kg oral, 18 hours before infection; 14 days post injection. Here is the method: Taconic Farms male, white mice, weighing 18-24 g were treated by gavage, 18 hours before infection with a test compound suspended or dissolved in 1.0 ml of 0.2% aqueous agar solution. The mice were then infected by subcutaneous injection with one LD95 of Columbia SK virus in 0.2 ml of distilled water. Groups of infected, untreated mice were used as controls to show the lethality of the infection. The test duration was 14 days.

Data set [2] deals with Rauscher Virus-Induced Leukemia. Nature of the data set: Inhibition of splenomegaly in mice with Rauscher virus-induced leukemia. The data set is classed as in vivo, Balb/c mice. Conditions: for reduction in splenomegaly: general statement, no dose, relative to placebo treated RLV-infected mice.
Data set [3] shares this test system. Description: Restoration of antibody formation in mice with Rauscher virus-induced leukemia. The data set is classed as in vivo, Balb/c mice.
In a further data set the test system is B16 melanoma. Nature of the data set: Distribution of metastatic foci in lungs of mice inoculated subcutaneously with B16 melanoma. The data set is classed as in vivo, BDF1 mice. Conditions: for No. of mice with 0 lung foci/mouse / No. of mice with 1-5 lung foci/mouse / No. of mice with 6-10 lung foci/mouse / No. of mice with 11-15 lung foci/mouse / No. of mice with >15 lung foci/mouse: day 25. Here is the method: BDF1 male mice inoculated subcutaneously with 0.25 ml of a 10% tumor
homogenate on day 0. Drugs administered intraperitoneally days 1,5,9 and
13; mice sacrificed on day 25, 10 mice per group. Distribution of […]

In data set [4] the test system is Columbia SK virus. Description: Protection of mice against lethal Columbia SK virus infection by oral pre-treatment. The data set is classed as in vivo, random-bred Swiss male mice. Conditions: 200 mg/kg oral. The method, then: At 24, 48, 72 and 96 hours after drug treatment, separate groups of mice were injected SC with an LD95 dose of the interferon sensitive virus, Columbia SK. […] Typically, protection from lethal infection with Columbia SK virus is associated with induction of interferon.

The subject of data set [5] is natural killer lymphocytes (NK cells). Nature of the data set: Stimulation of NK-cell activity in normal mice. Conditions: 10 mg/kg intraperitoneal.

With `CCN(CC)C(C)COc1ccc2cc3ccc(OCC(C)N(CC)CC)cc3nc2c1.Cl.Cl.Cl` (centres unmarked) [3,6-Bis(2-diethylaminopropoxy)acridine . 3HCl], the Survivors/Total in the data set on Columbia SK virus [1] is reported as 13/15.

Take `CCNCCOc1ccc2cc3ccc(OCCNCC)cc3nc2c1.Cl.Cl.Cl` [3,6-Bis(2-ethylaminoethoxy)acridine trihydrochloride]: in data set [2] (100 mg/kg), the “% Reduction in splenomegaly” value is 89%. The Survivors/Total in the data set on Columbia SK virus [1] is 10/15.

In the case of `CCN(CC)CCOc1ccc2cc3ccc(OCCN(CC)CC)c(Cl)c3nc2c1Cl` [3,6-bis(2-diethylaminoethoxy)-4,5-dichloroacridine], in data set [2] (50 mg/kg), the “% Reduction in splenomegaly” value is 86%. Moreover, the Survivors/Total in the data set on Columbia SK virus [1] was 7/15. Besides, the “Serum hemagglutinin titer/saline control titer” value in data set [3] (100 mg/kg oral) is 128/16.

Take `CCN(CC)CCOc1ccc2cc3ccc(OCCN(CC)CC)c([N+](=O)[O-])c3nc2c1[N+](=O)[O-]` [3,6-bis(2-diethylaminoethoxy)-4,5-dinitroacridine]: the “% Reduction in splenomegaly” value in data set [2] (100 mg/kg) is reported as 108%.

Consider `CN(C)CCOc1ccc2cc3ccc(OCCN(C)C)cc3nc2c1.Cl.Cl.Cl` [3,6-bis(2-dimethylaminoethoxy)acridine trihydrochloride], for which the “No. of mice with 0 lung foci/mouse” value with B16 melanoma (6.5 mg/kg i.p.) worked out at 0; in the data set with B16 melanoma (12.5 mg/kg i.p.) it was 1; in the data set on B16 melanoma (25 mg/kg i.p.), 2; with B16 melanoma (50 mg/kg i.p.), 1; in the data set with B16 melanoma (100 mg/kg i.p.), 3. Moreover, the “No. of mice with 1-5 lung foci/mouse” value is listed as 3 in the data set on B16 melanoma (6.5 mg/kg i.p.); 5 in the data set on B16 melanoma (12.5 mg/kg i.p.); 4 with B16 melanoma (25 mg/kg i.p.); 1 in the data set with B16 melanoma (50 mg/kg i.p.); 7 in the data set on B16 melanoma (100 mg/kg i.p.). Moreover, the “No. of mice with 6-10 lung foci/mouse” value with B16 melanoma (6.5 mg/kg i.p.) worked out at 3; in the data set with B16 melanoma (12.5 mg/kg i.p.), 1; with B16 melanoma (25 mg/kg i.p.), 2; with B16 melanoma (50 mg/kg i.p.), 4; in the data set on B16 melanoma (100 mg/kg i.p.) it was 0. Also, the “No. of mice with 11-15 lung foci/mouse” value was 1 in the data set on B16 melanoma (6.5 mg/kg i.p.); 1 in the data set with B16 melanoma (12.5 mg/kg i.p.); 1 with B16 melanoma (25 mg/kg i.p.); 0 in the data set on B16 melanoma (50 mg/kg i.p.); 0 in the data set on B16 melanoma (100 mg/kg i.p.). Moreover, the “No. of mice with >15 lung foci/mouse” value in the data set with B16 melanoma (6.5 mg/kg i.p.) stood at 1; with B16 melanoma (12.5 mg/kg i.p.), 1; with B16 melanoma (25 mg/kg i.p.), 0; in the data set with B16 melanoma (50 mg/kg i.p.) it was 0; in the data set on B16 melanoma (100 mg/kg i.p.) it was 0. In the data set on B16 melanoma (200 mg/kg i.p. days 1,5,9,13), the “Mortality (in place of lung foci count)” value is reported as “All mice dead”.

In the case of `CC(C)NCCOc1ccc2cc3ccc(OCCNC(C)C)cc3nc2c1.Cl.Cl.Cl` [3,6-bis(2-isopropylaminoethoxy)acridine trihydrochloride], the “% Reduction in splenomegaly” value in data set [2] (200 mg/kg) turned out to be 96%. For the same molecule, the Survivors/Total in the data set on Columbia SK virus [1] is given as 15/15. For the same molecule, the “Serum hemagglutinin titer/saline control titer” value in data set [3] (100 mg/kg oral) is 512/32.

For `Cl.Cl.Cl.c1cc2cc3ccc(OCCN4CCCCC4)cc3nc2cc1OCCN1CCCCC1` [3,6-bis(2-piperidinoethoxy)acridine trihydrochloride], in data set [2] (100 mg/kg), the “% Reduction in splenomegaly” value stood at 84%. For the same molecule, the Survivors/Total with Columbia SK virus [1] is given as 12/15. The “Serum hemagglutinin titer/saline control titer” value in data set [3] (100 mg/kg oral) was 256/16.

Turning to `c1cc2cc3ccc(OCCCN4CCCCC4)cc3nc2cc1OCCCN1CCCCC1` [3,6-bis[3-(1-piperidino)propoxy]acridine trihydrochloride], the “% Reduction in splenomegaly” value in data set [2] (50 mg/kg) amounted to 74%. Further, in the data set with Columbia SK virus [1], the Survivors/Total was 12/15. In addition, the “Serum hemagglutinin titer/saline control titer” value in data set [3] (50 mg/kg oral) is listed as 1024/32.

Take `O=c1[nH]cc(F)c(=O)[nH]1` [5-fluorouracil, reference compound]: the “No. of mice with 0 lung foci/mouse” value is given as 1 in the data set with B16 melanoma (20 mg/kg i.p.); 3 with B16 melanoma (25 mg/kg i.p.); 3 in the data set on B16 melanoma (30 mg/kg i.p.); 2 in the data set with B16 melanoma (40 mg/kg i.p.); 2 in the data set on B16 melanoma (50 mg/kg i.p.). Moreover, the “No. of mice with 1-5 lung foci/mouse” value with B16 melanoma (20 mg/kg i.p.) worked out at 2; with B16 melanoma (25 mg/kg i.p.), 3; with B16 melanoma (30 mg/kg i.p.), 3; with B16 melanoma (40 mg/kg i.p.) it was 5; in the data set with B16 melanoma (50 mg/kg i.p.) it was 4. Further, the “No. of mice with 6-10 lung foci/mouse” value is given as 1 in the data set on B16 melanoma (20 mg/kg i.p.); 1 with B16 melanoma (25 mg/kg i.p.); 3 with B16 melanoma (30 mg/kg i.p.); 4 in the data set with B16 melanoma (40 mg/kg i.p.); 3 with B16 melanoma (50 mg/kg i.p.). Further, the “No. of mice with 11-15 lung foci/mouse” value with B16 melanoma (20 mg/kg i.p.) was determined as 2; in the data set with B16 melanoma (25 mg/kg i.p.), 1; with B16 melanoma (30 mg/kg i.p.) it was 0; in the data set with B16 melanoma (40 mg/kg i.p.) it was 0; with B16 melanoma (50 mg/kg i.p.), 0. Moreover, the “No. of mice with >15 lung foci/mouse” value with B16 melanoma (20 mg/kg i.p.) came to 1; in the data set with B16 melanoma (25 mg/kg i.p.), 1; with B16 melanoma (30 mg/kg i.p.), 0; in the data set with B16 melanoma (40 mg/kg i.p.), 0; with B16 melanoma (50 mg/kg i.p.), 0. Moreover, the “% Reduction in splenomegaly” value in data set [2] (50 mg/kg) is listed as 115%. In data set [2], this molecule had a reduction in splenomegaly not below 50%.

Turning to `Sc1ncnc2nc[nH]c12` [6-Mercaptopurine, 6-mercaptopurine, reference compound], the “% Reduction in splenomegaly” value in data set [2] (100 mg/kg) is on record as 113%. Moreover, the reduction in splenomegaly in data set [2] is listed as not below 50%.

Consider `CN(Cc1cnc2nc(N)nc(N)c2n1)c1ccc(C(=O)N[C@@H](CCC(=O)O)C(=O)O)cc1` [Methotrexate, reference compound], for which the “% Reduction in splenomegaly” value in data set [2] (4 mg/kg) was determined as 59%. Further, in data set [2], the reduction in splenomegaly is recorded as not below 50%.

With `CCN(CC)CCOc1ccc2c(c1)C(=O)c1cc(OCCN(CC)CC)ccc1-2` [Tilorone, tilorone hydrochloride, reference compound], the “Survivors/Total (14 Days)” value in the data set on Columbia SK virus [4] (-24 hr relative to virus challenge, * p <.01) is recorded as 18/20; with Columbia SK virus [4] (-48 hr relative to virus challenge, * p <.01), 15/20; in the data set on Columbia SK virus [4] (-72 hr relative to virus challenge, * p <.01) it was 9/20; in the data set with Columbia SK virus [4] (-96 hr relative to virus challenge) it was 8/20.

With “polyinosinic acid:polycytidylic acid [Poly I:C, reference compound]”, the “% Cytotoxicity” value was 24.7% in data set [5] (Test 1 (CD1 mice), * p <.05) and 36.1% in data set [5] (Test 2 (BDF1 hybrids)). The “Serum hemagglutinin titer/saline control titer” value in data set [3] (10 mg/kg IP) was 1024/32.
